# Tests used:
# [1] = in vitro transcription initiated with the cap analog; cited from earlier work
# T7 RNA polymerase = T7 RNA polymerase (Escherichia phage T7, UniProt P00573); details: 2 hrs at 37 C, concluded from protein expression in mice
# Protocol: For ARCA and ARC CAP1 mRNAs, in vitro transcription was performed using the standard protocol (see Table, below). All of components were mixed, and T7 RNA polymerase (E2040 from NEB) was added in the reaction mixture. The transcription reaction was incubated for 2 hrs at 37 C. After 2 hrs of reaction time, DNASEI (NEB) and buffer were added to the transcription reaction and incubated for 15 mins at 37 C. The crude of reaction mix was purified using RNA purification kit (Macherey-Nagel).
# [2] = tested on: rabbit reticulocyte lysate system; details: mRNA transcribed with the cap analog; cited from earlier work
# [3] = Protein expression in plasma (ELISA) after i.v. delivery of m^7G(5′)p3-RNA to mice; format: in vivo
# T7 RNA polymerase, sequence (P00573 whole entry): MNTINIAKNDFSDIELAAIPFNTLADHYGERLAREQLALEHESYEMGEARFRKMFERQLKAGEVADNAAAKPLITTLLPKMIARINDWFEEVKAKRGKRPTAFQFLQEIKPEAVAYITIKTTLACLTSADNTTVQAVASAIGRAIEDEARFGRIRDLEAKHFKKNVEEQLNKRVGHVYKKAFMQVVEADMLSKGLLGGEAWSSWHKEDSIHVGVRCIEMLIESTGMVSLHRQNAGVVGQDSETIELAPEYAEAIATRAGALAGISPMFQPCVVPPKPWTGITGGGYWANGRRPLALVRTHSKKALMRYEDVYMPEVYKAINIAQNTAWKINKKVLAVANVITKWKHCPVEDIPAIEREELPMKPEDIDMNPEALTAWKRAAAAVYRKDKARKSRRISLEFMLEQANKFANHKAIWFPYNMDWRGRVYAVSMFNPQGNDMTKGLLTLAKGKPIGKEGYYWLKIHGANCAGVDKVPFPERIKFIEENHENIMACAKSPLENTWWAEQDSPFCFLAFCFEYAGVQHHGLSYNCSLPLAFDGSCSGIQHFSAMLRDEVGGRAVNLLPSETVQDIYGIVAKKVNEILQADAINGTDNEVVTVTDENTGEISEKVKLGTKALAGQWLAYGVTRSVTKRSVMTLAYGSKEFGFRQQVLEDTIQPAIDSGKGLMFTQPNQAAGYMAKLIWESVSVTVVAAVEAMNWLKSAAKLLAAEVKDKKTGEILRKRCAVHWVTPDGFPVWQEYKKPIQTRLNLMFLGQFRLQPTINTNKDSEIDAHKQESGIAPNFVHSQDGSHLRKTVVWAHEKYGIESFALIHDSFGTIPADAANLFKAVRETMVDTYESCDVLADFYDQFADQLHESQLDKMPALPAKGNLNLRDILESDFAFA
SMILES,caps oriented in the reverse direction / reverse-orientation transcript [1],efficiency of transcription (T7 RNA polymerase),translational efficiency (rank order of cap structures) [2],efficiency of translation of capped RNA ([3]; compared with enzymatically (vaccinia) capped RNA),"amount of protein expression ([3]; m^7G(5′)p3-RNA 0.3 mg/kg i.v., male mice, plasma 6 hours post dose, ELISA, FIG. 16)"
"CO[C@H]1[C@@H](O)[C@H](n2c[n+](C)c3c(=O)[nH]c(N)nc32)O[C@@H]1COP(=O)(O)OP(=O)(O)OP(=O)(O)OC[C@H]1O[C@@H](n2cnc3c(=O)[nH]c(N)nc32)[C@H](O)[C@@H]1O [ARCA, 3′-OMe-m^7G(5′)p3G]",without reversal,,,,
Cn1c[n+]([C@@H]2O[C@H](COP(=O)(O)OP(=O)([O-])OP(=O)(O)OC[C@H]3O[C@@H](n4cnc5c(=O)[nH]c(N)nc54)[C@H](O)[C@@H]3O)[C@@H](O)[C@H]2O)c2nc(N)[nH]c(=O)c21 [m^7G(5′)p3(5′)G],one third to one half of the caps oriented in the reverse direction,,,,
"CO[C@@H]1[C@H](OP(=O)(O)OC[C@H]2O[C@@H](n3cnc4c(=O)[nH]c(N)nc43)[C@H](O)[C@@H]2O)[C@@H](COP(=O)(O)OP(=O)(O)OP(=O)([O-])OC[C@H]2O[C@@H]([n+]3cn(C)c4c(=O)[nH]c(N)nc43)[C@H](O)[C@@H]2O)O[C@H]1n1cnc2c(N)ncnc21 [ARC CAP1, m^7G(5′)p3AmpG]",,substantially improved compared to dinucleotide ARCA,greatest,just as efficient translated as enzymatically capped RNA,greater than ARCA

# — patent US10968248B2, “Trinucleotide mRNA cap analogs” (c/o Arcturus Therapeutics, Inc., priority 2016, dated 2021)
